{
  "source": "patent US20070116785A1",
  "about": "“Nitric oxide as an anti-viral agent, vaccine and vaccine adjuvant” (priority 2005, published 2007)",
  "key": {"[1]": {"tested_on": "influenza A/Victoria/H3N2", "experiment": "Plaque assay in MDCK cells with gNO-exposed virus, several concentrations and dosing techniques (Example 2)", "type": "cell-based"}, "Bovine Respiratory Virus": {"tested_on": "Bovine Respiratory Virus", "experiment": "In vivo bovine feedlot study (Example 6)", "set-up": "species or system calves", "description": "A similar in vivo bovine study as in Example 5 was conducted with one hundred and fifty-eight (158) calves. The calves were shipped into a commercial feedlot, wherein some of the animals at the feedlot were infected with BRV. The […] calves were treated with either: (1) 4 minutes of approximately 160-260 ppm nitric oxide gas (30-60 breaths); or (2) conventional antibiotic, antiviral and immunization medications. 42 calves were treated with gNO, while 116 calves were treated with conventional antibiotics."}, "[2]": {"tested_on": "Bovine Respiratory Disease (BRD)"}, "[3]": {"tested_on": "Highly Pathogenic Avian Influenza (HPAI) H7N3", "type": "cell-based"}, "influenza A/H3N2": {"tested_on": "influenza A/H3N2", "experiment": "Plaque assay in MDCK cells with gNO-exposed virus (Example 2)", "type": "cell-based"}, "influenza A virus": {"tested_on": "influenza A virus", "experiment": "Plaque assay in MDCK cells with virus exposed to nitric oxide gas (Example 1)", "type": "cell-based", "conditions": "virus exposed to 160 ppm nitric oxide gas for 1, 2 and 3 hours; vs air control; FIG. 1"}},
  "note": "“Also recorded” adds a separate entry of the source.",
  "data": [
    {"smiles": "[N]=O", "note": "[gNO, Nitric oxide]", "values": [
      {"measurement": "infectivity of influenza A/Victoria/H3N2", "setting": "[1]; 40 ppm gNO continuously over 4 hours, FIG. 10", "result": "no effect"},
      {"measurement": "infectivity of influenza A/Victoria/H3N2", "setting": "[1]; 80 ppm gNO continuously for 4 hours, FIG. 7, 10", "result": "not effective; also recorded: no effect"},
      {"measurement": "infectivity of influenza A/Victoria/H3N2", "setting": "[1]; 160 ppm gNO and above (160 ppm and 800 ppm), continuously over 4 hours, vs controls and lower concentrations, FIG. 11", "result": "effective in reducing the infectivity"},
      {"measurement": "concentration of influenza A/Victoria/H3N2", "setting": "[1]; 160 ppm gNO for 4 continuous hours, FIG. 8", "result": "effective in reducing the concentration of influenza A/Victoria/H3N2; also recorded: significant effect"},
      {"measurement": "infectivity of influenza A/Victoria/H3N2", "setting": "[1]; 800 ppm gNO continuously over 4 hours, FIG. 11", "result": "no real improved effect compared to 160 ppm"},
      {"measurement": "infectivity of influenza A/Victoria/H3N2", "setting": "[1]; intermittent 160 ppm gNO, 30 minutes once every hour for 4 hours, FIG. 12", "result": "more effective than the single 30 minute exposure; also recorded: effective as an anti-infective agent against influenza A/Victoria/H3N2"},
      {"measurement": "concentration of influenza A/Victoria/H3N2", "setting": "[1]; single 30 minute exposure to 160 ppm gNO, tracked over 4 hours, FIG. 9, 12", "result": "effective in reducing concentration of influenza A/Victoria/H3N2; also recorded: as effective as three (3) thirty (30) minute doses of gNO"},
      {"measurement": "calves exhibiting clinical signs of infection (Bovine Respiratory Virus)", "setting": "Bovine Respiratory Virus; after 15 days, 4 minutes of approximately 160-260 ppm nitric oxide gas (30-60 breaths), 4/42", "result": 9.5, "unit": "%"},
      {"measurement": "effectiveness as antiviral agent reducing infectivity relative to conventional vaccines, antiviral agents and antibiotics", "setting": "Bovine Respiratory Virus; feedlot calves, 15 days", "result": "almost twice as effective"},
      {"measurement": "clinical scores (industry standard signs)", "setting": "[2]; 160 ppm gNO, prophylactic vs early detection group, FIG. 17", "result": "more effective in achieving low clinical scores for the prophylactic group than for the early detection group"},
      {"measurement": "IRT Temperature", "setting": "[2]; 160 ppm gNO, prophylactic vs early detection group, FIG. 18", "result": "more effective in achieving low IRT temperatures for the prophylactic group than for the early detection group"},
      {"measurement": "calves' temperatures and clinical scores", "setting": "[2]; NO given at Early Detection (IRT) or at Clinical Detection", "result": "rapidly resolved"},
      {"measurement": "infection after 6 months", "setting": "[2]; all NO treated animals regardless of dosing/timing, induction herd: 13 out of 15 required antibiotic treatment", "result": "none of the NO treated animals demonstrated infection"},
      {"measurement": "prevention of infection", "setting": "[2]; bovine, in vivo", "result": "effective in preventing infection"},
      {"measurement": "safety of delivery", "setting": "[2]; bovine, in vivo", "result": "delivered safely without incident"},
      {"measurement": "Mean Temperature (IRT)", "setting": "[2]; prophylactic group, mean over 10 days, […], FIG. 16", "result": "roughly 36.1 °C"},
      {"measurement": "concentration of HPAI H7N3", "setting": "[3]", "result": "about 330 PFU/mL"},
      {"measurement": "infectivity of HPAI H7N3, continuous exposure compared with single treatment", "setting": "[3]", "result": "comparatively better than the single treatment"},
      {"measurement": "infectivity of HPAI H7N3", "setting": "[3]; after 3 hours", "result": "under 50 PFU/mL"},
      {"measurement": "infectivity of influenza A/H3N2", "setting": "influenza A/H3N2; 80 ppm gNO continuously for 4 hours, FIG. 4", "result": "not as effective as the 160 ppm concentration"},
      {"measurement": "concentration of influenza A/H3N2 (viruses capable of infecting a cell)", "setting": "influenza A/H3N2; 160 ppm gNO for 1, 2 and 3 hours, vs room air control, FIG. 2", "result": "significantly reduced the concentration of influenza A/H3N2"},
      {"measurement": "concentration of influenza A/H3N2", "setting": "influenza A/H3N2; single 30 minute exposure to 160 ppm gNO, plaque assay to 20 hours after exposure, FIG. 5", "result": "decreases concentration of influenza A/H3N2 over 20 hours"},
      {"measurement": "influenza A virus in MDCK cell cultures (plaques)", "setting": "influenza A virus", "result": "significantly less influenza A virus as compared to the air control"}
    ]}
  ]
}
